# Reference: US20250230193A1, “CYCLIC COMPOUND HAVING SELECTIVE KRAS INHIBITORY EFFECT ON HRAS AND NRAS” (CHUGAI SEIYAKU KABUSHIKI KAISHA, priority 2022, published 2025)
# Assays:
# [1] = target: GDP-bound HRAS wild-type protein (Homo sapiens, UniProt P01112); assay: Binding to HRAS by surface plasmon resonance (SPR), Single Cycle Kinetics; details: SPR; KD ratio class
# [2] = system: human lung cancer strain NCI-H441; assay: cells; details: NCI-H441, 96 h, read-out: NCI-H441 IC50 (nM)
# [3] = target: GDP-bound NRAS wild-type protein (Homo sapiens, UniProt P01111); assay: Binding to NRAS by surface plasmon resonance (SPR), Single Cycle Kinetics; details: SPR; KD ratio class
# Sequence of GDP-bound NRAS wild-type protein (P01111 whole entry): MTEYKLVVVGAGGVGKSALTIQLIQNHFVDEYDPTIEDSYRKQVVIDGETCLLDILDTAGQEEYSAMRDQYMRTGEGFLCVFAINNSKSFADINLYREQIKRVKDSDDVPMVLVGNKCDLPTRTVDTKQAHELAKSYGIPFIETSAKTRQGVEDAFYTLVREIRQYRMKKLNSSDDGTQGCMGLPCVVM
# Sequence of GDP-bound HRAS wild-type protein (P01112 whole entry): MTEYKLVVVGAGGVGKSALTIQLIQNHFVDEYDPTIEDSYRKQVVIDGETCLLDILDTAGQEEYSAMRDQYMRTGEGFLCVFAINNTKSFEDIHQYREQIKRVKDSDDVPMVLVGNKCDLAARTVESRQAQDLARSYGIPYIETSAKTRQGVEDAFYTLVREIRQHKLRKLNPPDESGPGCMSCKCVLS
SMILES,HRAS/KRAS (ratio of KD value for GDP-bound HRAS wild-type protein to KD value for KRAS) [1],IC50 [2] [nM],NRAS/KRAS (ratio of KD value for GDP-bound NRAS wild-type protein to KD value for KRAS) [3]
CCO[C@@H]1C[C@H]2C(=O)NC3(CCCC3)C(=O)N(C)[C@@H](C3CCCC3)C(=O)N(C)[C@H](C(=O)N(C)C)CC(=O)N(C)[C@@H](CC3CC3)C(=O)N[C@@H]([C@@H](C)CC)C(=O)N(C)CC(=O)N(C)[C@H]3C[C@@H](C)[C@@H](C)CN(C3=O)[C@@H](Cc3ccc(C(F)(F)F)cc3)C(=O)N(C)CC(=O)N[C@@H](CCc3ccc(C(F)(F)F)c(Cl)c3)C(=O)N2C1 [PP1362],B (a compound having 3 or more and less than 10 is denoted as B),3.7,A (a compound having 10 or more and less than 20 is denoted as A)
CC[C@H](C)[C@@H]1NC(=O)[C@H](CC)N(C)C(=O)C[C@@H](C(=O)N(C)C)N(C)C(=O)[C@H](C2CCCC2)N(C)C(=O)C2(CCCC2)NC(=O)[C@@H]2CCCN2C(=O)[C@H](CCc2cc(F)c(C(F)(F)F)c(F)c2)NC(=O)CN(C)C(=O)[C@H](Cc2ccc(C(F)(F)F)cc2)N2C[C@H](C)[C@H](C)C[C@@H](C2=O)N(C)C(=O)CN(C)C1=O [PP1364],B (a compound having 3 or more and less than 10 is denoted as B),7.1,A (a compound having 10 or more and less than 20 is denoted as A)
CC[C@H](C)[C@@H]1NC(=O)[C@H](CC)N(C)C(=O)C[C@@H](C(=O)N2CCOCC2)N(C)C(=O)[C@H](C2CCCC2)N(C)C(=O)C2(CCCC2)NC(=O)[C@@H]2CCCN2C(=O)[C@H](CCc2cc(F)c(C(F)(F)F)c(F)c2)NC(=O)CN(C)C(=O)[C@H](Cc2ccc(C(F)(F)F)cc2)N2C[C@H](C)[C@H](C)C[C@@H](C2=O)N(C)C(=O)CN(C)C1=O [PP1365],B (a compound having 3 or more and less than 10 is denoted as B),4.2,A (a compound having 10 or more and less than 20 is denoted as A)
CC[C@H](C)[C@@H]1NC(=O)[C@H](CC)N(C)C(=O)C[C@@H](C(=O)N2CCOCC2)N(C)C(=O)[C@H](C2CCCC2)N(C)C(=O)C2(CCC2)NC(=O)[C@@H]2CCCN2C(=O)[C@H](CCc2cc(F)c(C(F)(F)F)c(F)c2)NC(=O)CN(C)C(=O)[C@H](Cc2ccc(C(F)(F)F)cc2)N2C[C@H](C)[C@H](C)C[C@@H](C2=O)N(C)C(=O)CN(C)C1=O [PP1366],B (a compound having 3 or more and less than 10 is denoted as B),14,A (a compound having 10 or more and less than 20 is denoted as A)
CC[C@H](C)[C@@H]1NC(=O)[C@H](CC(C)C)N(C)C(=O)C[C@@H](C(=O)N2CCOCC2)N(C)C(=O)[C@H](C2CCCC2)N(C)C(=O)C2(CCC2)NC(=O)[C@@H]2CCCN2C(=O)[C@H](CCc2cc(F)c(C(F)(F)F)c(F)c2)NC(=O)CN(C)C(=O)[C@H](Cc2ccc(C(F)(F)F)cc2)N2C[C@H](C)[C@H](C)C[C@@H](C2=O)N(C)C(=O)[C@@H]2CCN2C1=O [PP1367],B (a compound having 3 or more and less than 10 is denoted as B),29.3,A (a compound having 10 or more and less than 20 is denoted as A)
CC[C@H](C)[C@@H]1NC(=O)[C@H](CC2CC2)N(C)C(=O)C[C@@H](C(=O)N(C)C)N(C)C(=O)[C@H](C2CCCC2)N(C)C(=O)C2(CCCC2)NC(=O)[C@@H]2CCCN2C(=O)[C@H](CCc2cc(F)c(C(F)(F)F)c(F)c2)NC(=O)CN(C)C(=O)[C@H](Cc2ccc(C(F)(F)F)cc2)N2C[C@H](C)[C@H](C)C[C@@H](C2=O)N(C)C(=O)CN(C)C1=O [PP1368],B (a compound having 3 or more and less than 10 is denoted as B),2.9,A (a compound having 10 or more and less than 20 is denoted as A)
CCO[C@@H]1C[C@H]2C(=O)NC3(CCC3)C(=O)N(C)[C@@H](C3CCCC3)C(=O)N(C)[C@H](C(=O)N3CCOCC3)CC(=O)N(C)[C@@H](CC)C(=O)N[C@@H]([C@@H](C)CC)C(=O)N3CC[C@H]3C(=O)N(C)[C@H]3CC[C@@H](C)CN(C3=O)[C@@H](Cc3ccc(C(F)(F)F)cc3)C(=O)N(C)CC(=O)N[C@@H](CCc3cc(F)c(C(F)(F)F)c(F)c3)C(=O)N2C1 [PP1369],B (a compound having 3 or more and less than 10 is denoted as B),13.4,B (a compound having 3 or more and less than 10 is denoted as B)
CCO[C@@H]1C[C@H]2C(=O)NC3(CCCC3)C(=O)N(C)[C@@H](C3CCCC3)C(=O)N(C)[C@H](C(=O)N(C)C)CC(=O)N(C)[C@@H](CC)C(=O)N[C@@H]([C@@H](C)CC)C(=O)N(C)CC(=O)N(C)[C@H]3CC[C@@H](C)CN(C3=O)[C@@H](Cc3ccc(C(F)(F)F)cc3)C(=O)N(C)CC(=O)N[C@@H](CCc3cc(F)c(C(F)(F)F)c(F)c3)C(=O)N2C1 [PP1370],C (A compound having a KD ratio of 0.1 or more and less than 3 is denoted as C),2.3,C (A compound having a KD ratio of 0.1 or more and less than 3 is denoted as C)
CCO[C@@H]1C[C@H]2C(=O)NC3(CCCC3)C(=O)N(C)[C@@H](C3CCCC3)C(=O)N(C)[C@H](C(=O)N3CCOCC3)CC(=O)N(C)[C@@H](CC)C(=O)N[C@@H]([C@@H](C)CC)C(=O)N(C)CC(=O)N(C)[C@H]3CC[C@@H](C)CN(C3=O)[C@@H](Cc3ccc(C(F)(F)F)cc3)C(=O)N(C)CC(=O)N[C@@H](CCc3cc(F)c(C(F)(F)F)c(F)c3)C(=O)N2C1 [PP1371],B (a compound having 3 or more and less than 10 is denoted as B),5.1,A (a compound having 10 or more and less than 20 is denoted as A)
CCO[C@@H]1C[C@H]2C(=O)NC3(CCC3)C(=O)N(C)[C@@H](C3CCCC3)C(=O)N(C)[C@H](C(=O)N3CCOCC3)CC(=O)N(C)[C@@H](CC)C(=O)N[C@@H]([C@@H](C)CC)C(=O)N(C)CC(=O)N(C)[C@H]3CC[C@@H](C)CN(C3=O)[C@@H](Cc3ccc(C(F)(F)F)cc3)C(=O)N(C)CC(=O)N[C@@H](CCc3cc(F)c(C(F)(F)F)c(F)c3)C(=O)N2C1 [PP1372],B (a compound having 3 or more and less than 10 is denoted as B),5,B (a compound having 3 or more and less than 10 is denoted as B)
CCO[C@@H]1C[C@H]2C(=O)NC3(CCC3)C(=O)N(C)[C@@H](C3CCCC3)C(=O)N(C)[C@H](C(=O)N3CCOCC3)CC(=O)N(C)[C@@H](CC(C)C)C(=O)N[C@@H]([C@@H](C)CC)C(=O)N3CC[C@H]3C(=O)N(C)[C@H]3CC[C@@H](C)CN(C3=O)[C@@H](Cc3ccc(C(F)(F)F)cc3)C(=O)N(C)CC(=O)N[C@@H](CCc3cc(F)c(C(F)(F)F)c(F)c3)C(=O)N2C1 [PP1373],B (a compound having 3 or more and less than 10 is denoted as B),12.2,B (a compound having 3 or more and less than 10 is denoted as B)
